Patent publication US20100081200A1, “FORMULATIONS AND METHODS FOR CULTURING STEM CELLS” (priority 2007, published 2010)

What was measured:
[1] = test system: hESCs (HS401 cell line); assay: Lipids and lipid derivatives: visual evaluation of morphology, size and thickness of undifferentiated colonies; format: cell-based, human; details: for morphology of the undifferentiated colonies (in words): in both hES medium and the present culture medium
Description: (§1) FIGS. 9A-9B show the morphology and differentiation stage of hESCs cultured in the present culture medium and in the presence of lipids and lipid derivatives. UD, PD and DIFF represent undifferentiated, partly differentiated and differentiated hESC colonies, respectively. FIG. 9A) HS401 cell line cultured in the present culture medium supplemented with different lipids and lipid derivatives. FIG. 9B) HS401 cell line cultured in control hES medium supplemented with different lipids and lipid derivatives.
Various lipids and lipid derivatives were tested in the culture medium (RegES) according to some embodiments of the present invention and in the conventional hES culture medium containing KO-SR (Knockout serum replacement, Invitrogen). General morphology, as well as the size and thickness of the undifferentiated colonies were evaluated before each passaging based on visual perceptions (Table 7).

[2] = test system: hESC colonies (HS401 cell line); assay: Lipids and lipid derivatives: classification of hESC colonies as undifferentiated, partly differentiated, differentiated; format: cell-based, human
Description: as §1
Furthermore, the hESC colonies were classified into three categories; undifferentiated, partly differentiated and differentiated. Number of each colony type was calculated before each passaging. Later, a percentage value for each colony type of the total amount of colonies was calculated (FIG. 9).

[3] = test system: human embryonic stem cells; assay: Effect of different vitamins on the undifferentiated growth of human embryonic stem cells; format: cell-based; details: for effect on undifferentiated growth / number of undifferentiated colonies (in words): retinol 20 μM, nicotinamide 5 mM and 10 mM, Vitamin Mix 1%
Experimental: The effect of different vitamins on the undifferentiated growth of human embryonic stem cells was tested by providing retinol (20 μM), nicotinamide (5 mM and 10 mM) or commercial Vitamin Mix (1%) containing nicotinamide but not retinol (MEM Vitamin Solution (100x), cat. No. 11120-037, provided by Gibco/Invitrogen) to human embryonic stem cells (Table 1). […] Vitamin Mix had no effect on the undifferentiated growth of embryonic stem cells.
Accordingly, the serum replacement according to some embodiments of the present invention is a xeno-free formulation comprising at least retinol. In some embodiments, the concentration range of retinol in the serum replacement is such that the final culture medium comprises from about 0.25 mg/l to about 0.5 mg/l, more specifically about 0.57 mg/l retinol. Accordingly, in embodiments wherein basal medium is to be supplemented with 20% (vol/vol) serum replacement, said serum replacement comprises retinol from about 1.25 mg/l to about 2.5 mg/l, more specifically about 2.85 mg/l.

[4] = test system: hESCs (Regea 07/046, HS401); assay: Retinol: proliferation and expression of stem cell markers; format: cell-based, human
Experimental: FIG. 10A) Bright-field microscopic image of hESCs (Regea 07/046) at day 3 cultured in the present culture medium without retinol for 5 passages. FIG. 10B) Bright-field microscopic image of hESCs (Regea 07/046) at day 3 cultured in the present culture medium containing 2.0 μM retinol for 5 passages. The size of the colonies is larger in the presence of retinol when compared to the colonies cultured without retinol. Scale bar 500 μm. FIGS. 10C-D) Fluorescent microscopic image of hESCs (HS401) cultured in the present culture medium containing 2.0 μM retinol for 12 passages showing positive expression of
Nanog and TRA-1-81. Insets represent DAPI staining. Scale bar 200 μm. FIG. 10E) Cell proliferation analysis of hESC line Regea 07/046 cultured in the present culture medium without and in the presence of 0.5, 2.0 and 3.5 μM retinol for 10 passages. FIG. 10F) Quantitative RT-PCR analysis of Oct4, GDF3, DNMT3B, TDGF1 and Nanog expression in hESC line Regea 07/046 cultured in the present culture medium without and in the presence of 0.5, 2.0 and 3.5 μM retinol for 10 passages.
Retinol was selected to be further evaluated in the maintenance of undifferentiated hESCs. […] In the presence of 2.0 μM retinol, the growth of the colonies started earlier and already at day 3 the size of the colonies was bigger (FIG. 10A-10B).

[5] = test system: hESC line Regea 07/046; assay: Activin A: proliferation assay, FACS and qRT-PCR of pluripotency markers; format: cell-based, human
Experimental: FIG. 11B) Quantitative RT-PCR analysis of Nanog, Oct4, GDF3, DNMT3B, GABRB3 and GDF3 expression in hESC line Regea 07/046 cultured in the present culture medium without and in the presence of 5 ng/ml and 10 ng/ml Activin A and hES control medium for 10 passages. FIG. 11C) FACS analysis of SSEA4 and TRA-1-60 stem cell markers of hESC line Regea 07/046 cultured in the present culture medium without and in the presence of 5 ng/ml and 10 ng/ml Activin A and hES control medium for 10 passages.

[6] = test system: embryonic stem cell colonies; assay: Effect of fetuin and α-fetoprotein on growth rate and size of embryonic stem cell colonies; format: cell-based; details: human serum albumin 10 mg/ml
Experimental: All formulations shown contained human serum albumin at a concentration of 10 mg/ml.
The composition of the formulation according to this embodiment of the present invention was further optimized as described above in Table 2.

[7] = in the present culture medium, compared to control hES or Albumax-RegES medium
[8] = in hES culture medium, compared to control hES medium

Molecule: CC(C)NCC(O)c1ccc(O)c(O)c1 (racemic) [DL-isoproterenol, reference compound]
- Morphology ([1]; RegES medium, 0.1 mg/ml): ++
- Morphology ([1]; hES medium, 0.1 mg/ml): + (poor morphology, uneven edges in the colonies, thin and/or small colonies)
- morphology (in words) ([1]; in hES culture medium): poor morphology and/or excess differentiation
- morphology (in words) ([1]; in the present culture medium): satisfying morphology
- number of undifferentiated and differentiated colonies [2, 7]: number of undifferentiated colonies increased and the number of differentiated colonies decreased

Molecule: CC/C=C\C/C=C\C/C=C\CCCCCCCC(=O)O [Alfa-linoleic acid]
- Morphology ([1]; RegES medium, 5 μg/ml): −/− (excess differentiation of the colonies, poor morphology)
- Morphology ([1]; hES medium, 5 μg/ml): −/− (excess differentiation of the colonies, poor morphology)

Molecule: CCCCC/C=C\C/C=C\C/C=C\C/C=C\CCCC(=O)O [Arachidonic acid]
- number of undifferentiated and differentiated colonies [2, 8]: number of undifferentiated colonies increased and the number of differentiated colonies decreased

Molecule: CC(C)CCC[C@@H](C)[C@H]1CC[C@H]2[C@@H]3CC=C4C[C@@H](O)CC[C@]4(C)[C@H]3CC[C@]12C [Cholesterol]
- number of undifferentiated and differentiated colonies [2, 8]: number of undifferentiated colonies increased and the number of differentiated colonies decreased

Molecule: CCCCC/C=C\C/C=C\C/C=C\CCCCC(=O)O [Gamma-linoleic acid]
- Morphology ([1]; RegES medium, 2.5 μg/ml): − (excess differentiation of the colonies, poor morphology)
- Morphology ([1]; hES medium, 2.5 μg/ml): ++

Molecule: CCCCC/C=C\C/C=C\CCCCCCCC(=O)O [Linoleic acid]
- morphology of the undifferentiated colonies (in words) [1]: improved the morphology
- number of undifferentiated and differentiated colonies [2, 7]: number of undifferentiated colonies increased and the number of differentiated colonies decreased

Molecule: NC(=O)c1cccnc1 [Nicotinamide, nicotinamide]
- effect on undifferentiated growth / number of undifferentiated colonies (in words) [3]: promoting their differentiation

Molecule: CCCCCC/C=C\CCCCCCCC(=O)O [Palmitoleic acid]
- morphology of the undifferentiated colonies (in words) [1]: improved the morphology
- number of undifferentiated and differentiated colonies [2, 7]: number of undifferentiated colonies increased and the number of differentiated colonies decreased

Molecule: CCCCC[C@H](O)/C=C/[C@H]1[C@H](O)CC(=O)[C@@H]1C/C=C\CCCC(=O)O [Prostaglandin E2]
- Morphology ([1]; RegES medium, 50 ng/ml): − (excess differentiation of the colonies, poor morphology)
- Morphology ([1]; hES medium, 50 ng/ml): + (poor morphology, uneven edges in the colonies, thin and/or small colonies)

Molecule: CCCCC[C@H](O)/C=C/[C@@H]1[C@@H](C/C=C\CCCC(=O)O)[C@@H](O)C[C@H]1O [Prostaglandin F2]
- Morphology ([1]; RegES medium, 50 ng/ml): ++
- Morphology ([1]; hES medium, 50 ng/ml): − (excess differentiation of the colonies, poor morphology)
- morphology (in words) ([1]; in hES culture medium): poor morphology and/or excess differentiation
- morphology (in words) ([1]; in the present culture medium): satisfying morphology

Molecule: CC1=C(/C=C/C(C)=C/C=C/C(C)=C/CO)C(C)(C)CCC1 [Retinol, retinol]
- maintaining stem cells in an undifferentiated state ([3]; 2 μM): effective
- effect on undifferentiated growth / number of undifferentiated colonies (in words) [3]: increased the number of undifferentiated colonies considerably
- morphology of the undifferentiated colonies (in words) [1]: improved the morphology
- number of undifferentiated and differentiated colonies [2, 8]: number of undifferentiated colonies increased and the number of differentiated colonies decreased
- number of undifferentiated and differentiated colonies [2, 7]: number of undifferentiated colonies increased and the number of differentiated colonies decreased
- Nanog relative expression level ([4]; 2.0 μM and 3.5 μM, qRT-PCR): over twentyfold
- proliferation rate ([4]; 2.0 μM or 3.5 μM, compared to without retinol or 0.5 μM): almost two-fold
- proliferation of hESCs and expression of hESC specific markers ([4]; 2.0 μM or above): improved the proliferation of hESCs as well as induced the expression of hESC specific markers
- size of the colonies ([4]; 2.0 μM, day 3): bigger
- morphology and number of undifferentiated colonies ([4]; 0.1-0.5 μM): not effective
- immunocytochemical staining of Nanog and TRA-1-81 ([4]; cultured in the presence of retinol): showed expression of stem cell markers Nanog and TRA-1-81

Molecule: CCCCCCCCCCCCCCCCCC(=O)O [Stearic acid]
- morphology (in words) ([1]; in hES culture medium): poor morphology and/or excess differentiation
- morphology (in words) ([1]; in the present culture medium): satisfying morphology
- number of undifferentiated and differentiated colonies [2, 7]: number of undifferentiated colonies increased and the number of differentiated colonies decreased

Molecule: Activin A: Activin A, growth factor supplement of the culture medium
- proliferation rate ([5]; 5 or 10 ng/ml in the present culture medium, compared to without Activin A): almost two-fold
- expression of pluripotency supporting markers ([5]; FACS and qRT-PCR, transcriptional and translational level): increased the expression

Molecule: Conjugated linoleic acid
- Morphology ([1]; RegES medium, 5 μg/ml): ++
- Morphology ([1]; hES medium, 5 μg/ml): +++ (nice morphology, even, thick and big colonies)
- morphology of the undifferentiated colonies (in words) [1]: improved the morphology
- number of undifferentiated and differentiated colonies [2, 8]: number of undifferentiated colonies increased and the number of differentiated colonies decreased
- number of undifferentiated and differentiated colonies [2, 7]: number of undifferentiated colonies increased and the number of differentiated colonies decreased

Molecule: Lysophosphatidylcholine
- Morphology ([1]; RegES medium, 5 μg/ml): ++
- Morphology ([1]; hES medium, 5 μg/ml): − (excess differentiation of the colonies, poor morphology)
- morphology (in words) ([1]; in hES culture medium): poor morphology and/or excess differentiation
- morphology (in words) ([1]; in the present culture medium): satisfying morphology

Molecule: Phosphatidylcholine
- Morphology ([1]; RegES medium, 2.5 μg/ml): − (excess differentiation of the colonies, poor morphology)
- Morphology ([1]; hES medium, 2.5 μg/ml): ++
- number of undifferentiated and differentiated colonies [2, 8]: number of undifferentiated colonies increased and the number of differentiated colonies decreased

Molecule: Phosphatidylethanolamine
- Morphology ([1]; RegES medium, 5 μg/ml): ++
- Morphology ([1]; hES medium, 5 μg/ml): − (excess differentiation of the colonies, poor morphology)
- morphology (in words) ([1]; in hES culture medium): poor morphology and/or excess differentiation
- morphology (in words) ([1]; in the present culture medium): satisfying morphology

B1: F: Fetuin, commercially available fetal carrier protein (protein, UniProt P12763 19-359, looked up)
Alpha-2-HS-glycoprotein: IPLDPVAGYKEPACDDPDTEQAALAAVDYINKHLPRGYKHTLNQIDSVKVWPRRPTGEVYDIEIDTLETTCHVLDPTPLANCSVRQQTQHAVEGDCDIHVLKQDGQFSVLFTKCDSSPDSAEDVRKLCPDCPLLAPLNDSRVVHAVEVALATFNAESNGSYLQLVEISRAQFVPLPVSVSVEFAVAATDCIAKEVVDPTKCNLLAEKQYGFCKGSVIQKALGGEDVRVTCTLFQTQPVIPQPQPDGAEAEAPSAVPDAAGPTPSAAGPPVASVVVGPSVVAVPLPLHRAHYDLRHTFSGVASVESSSGEAFHVGKTPIVGQPSIPGGPVRLCPGRIRYFKI
- concentration that increased colony size and growth rate the most [6]: 0.1 mg/mL
